Assay results from patent US20260098030A1, “NEGATIVE ALLOSTERIC MODULATORS OF METABOTROPIC GLUTAMATE RECEPTOR 2” (Vanderbilt University, priority 2022, published 2026).

molecular target: T1, human mGlu2 (Homo sapiens, UniProt Q14416); test: mGlu GIRK cell-based thallium flux assay, human mGlu2; conditions: HEK-293 cells co-expressing human mGlu2 and GIRK, EC80 glutamate
T1 construct: expressed in transfected cells; host or cells: HEK-293 cells stably co-expressing GIRK channels
Description: Human embryonic kidney (HEK-293) cell lines stably co-expressing human or rat mGlu2 and G protein-coupled inwardly rectifying potassium (GIRK) channels, or human mGlu3 and GIRK, were used for in vitro evaluation of compound activity in thallium flux assay using a fluorescent thallium indicator dye.
The day before the assay, GIRK cells co-expressing human mGlu3, human or rat mGlu2, as described above, were plated in black-walled, clear-bottomed, amine-coated 384-well plates at a density of 15,000 cells/20 μL/well in the assay medium (glutamine-depleted basal DMEM supplemented with 10% dialyzed FBS, 20 mM HEPES, 1 mM sodium pyruvate). Cells were incubated at 37° C. in the presence of 5% CO2. The next day, assay buffer (Hanks balanced salt solution, 20 mM HEPES, 4.16 mM sodium bicarbonate, pH 7.2) was prepared to dilute compounds and Thallos AM fluorescent dye solution. The 2× Thallos dye solution (final concentration 0.34 μM to the cells) was prepared by mixing the dye stock (2.97 mM in DMSO) to 1:1 with 10% pluronic acid before adding to the assay buffer. Cells were washed with assay buffer using a microplate washer to remove the medium, resulting in 20 μL of buffer remaining in each well. Immediately, 20 μL of 2× Thallos dye solution was added to cells, and incubated for one hour at 25° C. During the cell dye loading incubation period, a 10-point concentration serial dilution of compound was created from a 10 mM DMSO compound stock by performing a 1:3 serial dilution in DMSO using the Bravo liquid handler. The 2× compound plate was generated by transferring 0.24 μL of the diluted compound in each well to a daughter plate using an Echo acoustic liquid handler. This is further diluted in 40 μL assay buffer, resulting in a range from 30 μM to 1.5 nM final concentration in the assay. The agonist plate (5×) was prepared to include EC80 glutamate concentration (a concentration to elicit 80% of a maximally effective glutamate concentration) in thallium buffer (125 mM […], 1 mM magnesium sulfate, 1.8 mM calcium sulfate, 5 mM glucose, 10 mM HEPES, pH 7.2, 12.5 mM thallium sulfate).
After dye-loading, cell plates were washed with assay buffer to remove excess extracellular dye using a microplate washer, resulting in 20 μL of buffer remaining in each well. After a ten-minute equilibration period, cell, compound and agonist plates were loaded into a Hamamatsu μCell kinetic imaging plate reader equipped with liquid handler to monitor fluorescence changes at 480 nm excitation and 540 nm emission settings. Briefly, after collection of baseline fluorescence, 20 μL of compound was added and incubated for two minutes and twenty seconds. This is immediately followed by adding 10 μL of glutamate-thallium buffer to the wells containing compound. The fluorescent signal was monitored an additional 2.5 minutes after the glutamate addition. Multiple reference wells containing no compound received either no glutamate (for a baseline reference), EC80 glutamate, or ECmax glutamate (for normalization to maximum response). Fluorescence was measured throughout the experiment at a frequency of 1 measurement per every 2 seconds before the glutamate addition and a frequency of 1 measurement per every 1 second after the glutamate addition. Each compound concentration series occurred one time in each plate, and replicates from two or three plates were used in each experimental run. Thallium solutions were handled and disposed of according to guidelines from the Vanderbilt University Chemical Safety department.
Data were normalized using a static ratio function (F/F0) by dividing every fluorescent measurement by the initial fluorescent value for the corresponding well. The increase in signal resulting from the glutamate/thallium addition of the second add was measured by determining the slope from 3 seconds to 13 seconds after the addition. […]

T1 sequence (Q14416 19-872): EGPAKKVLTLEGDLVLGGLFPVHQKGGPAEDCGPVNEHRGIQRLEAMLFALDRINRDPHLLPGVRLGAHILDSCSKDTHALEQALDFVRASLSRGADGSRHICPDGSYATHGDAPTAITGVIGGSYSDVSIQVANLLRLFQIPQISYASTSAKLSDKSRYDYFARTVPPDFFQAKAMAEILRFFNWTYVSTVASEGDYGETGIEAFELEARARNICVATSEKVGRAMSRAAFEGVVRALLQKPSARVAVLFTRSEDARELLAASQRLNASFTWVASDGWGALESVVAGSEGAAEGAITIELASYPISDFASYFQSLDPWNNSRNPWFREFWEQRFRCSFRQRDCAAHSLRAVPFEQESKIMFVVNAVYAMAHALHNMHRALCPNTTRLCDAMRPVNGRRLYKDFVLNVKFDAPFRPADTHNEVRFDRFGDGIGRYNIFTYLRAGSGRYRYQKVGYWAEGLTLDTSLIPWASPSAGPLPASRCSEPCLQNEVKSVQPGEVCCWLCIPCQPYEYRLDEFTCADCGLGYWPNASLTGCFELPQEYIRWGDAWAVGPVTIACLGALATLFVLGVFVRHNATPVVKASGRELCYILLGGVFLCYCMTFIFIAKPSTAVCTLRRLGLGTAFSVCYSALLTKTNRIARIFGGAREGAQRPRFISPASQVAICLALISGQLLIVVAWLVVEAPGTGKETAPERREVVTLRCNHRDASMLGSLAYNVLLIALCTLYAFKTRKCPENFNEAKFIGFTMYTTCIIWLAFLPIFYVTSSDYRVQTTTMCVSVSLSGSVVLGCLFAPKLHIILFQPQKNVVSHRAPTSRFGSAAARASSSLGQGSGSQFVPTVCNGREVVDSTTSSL

Compound | IC50 [µM]
O=C1NCc2cc(-c3cccc4c3OCC4)c(-c3ccc(F)cc3F)cc21 [Compound 149, 6-(2,4-difluorophenyl)-5-(2,3-dihydrobenzofuran-7-yl)isoindolin-1-one] | 0.532
CN1CCN(c2ccccc2-c2cc3c(cc2-c2ccc(F)cc2F)C(=O)NC3)CC1 [Compound 150, 6-(2,4-difluorophenyl)-5-(2-(4-methylpiperazin-1-yl)phenyl)isoindolin-1-one] | > 10
Cn1nncc1-c1cccc(-c2cc3c(cc2-c2ccc(F)cc2F)C(=O)NC3)c1 [Compound 151, 6-(2,4-difluorophenyl)-5-(3-(1-methyl-1H-1,2,3-triazol-5-yl)phenyl)isoindolin-1-one] | 0.857
[2H]C([2H])([2H])n1nncc1-c1cccc(-c2cc3c(cc2-c2ccc(F)cc2F)C(=O)NC3)c1 [Compound 152, 6-(2,4-difluorophenyl)-5-(3-(1-(methyl-d3)-1H-1,2,3-triazol-5-yl)phenyl)isoindolin-1-one] | 0.693
[2H]C([2H])(C)n1nncc1-c1cccc(-c2cc3c(cc2-c2ccc(F)cc2F)C(=O)NC3)c1 [Compound 153, 6-(2,4-difluorophenyl)-5-(3-(1-(ethyl-1,1-d2)-1H-1,2,3-triazol-5-yl)phenyl)isoindolin-1-one] | 0.727
O=C1NCc2cc(-c3cnn(CCN4CCOCC4)c3)c(-c3ccc(F)cc3F)cc21 [Compound 154, 6-(2,4-difluorophenyl)-5-(1-(2-morpholinoethyl)-1H-pyrazol-4-yl)isoindolin-1-one] | > 10
O=C1NCc2cc(-c3cnn(C4COC4)c3)c(-c3ccc(F)cc3F)cc21 [Compound 155, 6-(2,4-difluorophenyl)-5-(1-(oxetan-3-yl)-1H-pyrazol-4-yl)isoindolin-1-one] | > 10
COc1cc(F)ccc1-c1cc2c(cc1-c1cccc(C#N)c1)CNC2=O [Compound 156, 3-(6-(4-fluoro-2-methoxyphenyl)-1-oxoisoindolin-5-yl)benzonitrile] | 0.66
COc1ccc(-c2cc3c(cc2-c2cccc(C#N)c2)CNC3=O)c(F)c1 [Compound 157, 3-(6-(2-fluoro-4-methoxyphenyl)-1-oxoisoindolin-5-yl)benzonitrile] | 0.736
N#Cc1cccc(-c2cc3c(cc2-c2ccc(F)c(F)c2)C(=O)NC3)c1 [Compound 158, 3-(6-(3,4-difluorophenyl)-1-oxoisoindolin-5-yl)benzonitrile] | 3.73
N#Cc1cccc(-c2cc3c(cc2-c2ccccc2F)C(=O)NC3)c1 [Compound 159, 3-(6-(2-fluorophenyl)-1-oxoisoindolin-5-yl)benzonitrile] | 1.72
N#Cc1cccc(-c2cc3c(cc2-c2c(F)cc(F)cc2F)C(=O)NC3)c1 [Compound 160, 3-(1-oxo-6-(2,4,6-trifluorophenyl)isoindolin-5-yl)benzonitrile] | 0.218
Cc1ccc(-c2cc3c(cc2-c2cccc(C#N)c2)CNC3=O)c(C)c1 [Compound 161, 3-(6-(2,4-dimethylphenyl)-1-oxoisoindolin-5-yl)benzonitrile] | 4.59
N#Cc1cccc(-c2cc3c(cc2-c2ccc(OC(F)F)cc2F)C(=O)NC3)c1 [Compound 162, 3-(6-(4-(difluoromethoxy)-2-fluorophenyl)-1-oxoisoindolin-5-yl)benzonitrile] | 0.891
Cn1cc(S(=O)(=O)Nc2ccccc2-c2cc3c(cc2-c2ccc(F)cc2F)C(=O)NC3)nn1 [Compound 163, N-(2-(6-(2,4-difluorophenyl)-1-oxoisoindolin-5-yl)phenyl)-1-methyl-1H-1,2,3-triazole-4-sulfonamide] | 1.11
Cc1ncc(S(=O)(=O)Nc2ccccc2-c2cc3c(cc2-c2ccc(F)cc2F)C(=O)NC3)s1 [Compound 164, N-(2-(6-(2,4-difluorophenyl)-1-oxoisoindolin-5-yl)phenyl)-2-methylthiazole-5-sulfonamide] | 0.955
Cn1cc(S(=O)(=O)Nc2ccccc2-c2cc3c(cc2-c2ccc(F)cc2F)C(=O)NC3)cn1 [Compound 165, N-(2-(6-(2,4-difluorophenyl)-1-oxoisoindolin-5-yl)phenyl)-1-methyl-1H-pyrazole-4-sulfonamide] | 0.637

Compound | IC50 [µM]
COc1cc(C#N)ccc1-c1cc2c(cc1-c1cccc(C#N)c1)CNC2=O [Compound 166, 4-(6-(3-cyanophenyl)-3-oxoisoindolin-5-yl)-3-methoxybenzonitrile] | 2.45
N#Cc1cccc(-c2cc3c(cc2-c2ccc(C#N)c(F)c2)C(=O)NC3)c1 [Compound 167, 4-(6-(3-cyanophenyl)-3-oxoisoindolin-5-yl)-2-fluorobenzonitrile] | > 10
N#Cc1cccc(-c2cc3c(cc2-c2ccc(O)cc2F)C(=O)NC3)c1 [Compound 168, 3-(6-(2-fluoro-4-hydroxyphenyl)-1-oxoisoindolin-5-yl)benzonitrile] | > 10
N#Cc1cccc(-c2cc3c(cc2-c2ccc(F)cc2Cl)C(=O)NC3)c1 [Compound 169, 3-(6-(2-chloro-4-fluorophenyl)-1-oxoisoindolin-5-yl)benzonitrile] | 2.25
COc1ccc(F)c(-c2cc3c(cc2-c2cccc(C#N)c2)CNC3=O)c1 [Compound 170, 3-(6-(2-fluoro-5-methoxyphenyl)-1-oxoisoindolin-5-yl)benzonitrile] | > 10
COc1ccc(-c2cc3c(cc2-c2cccc(C#N)c2)CNC3=O)cc1F [Compound 171, 3-(6-(3-fluoro-4-methoxyphenyl)-1-oxoisoindolin-5-yl)benzonitrile] | 3.55
COc1ccc(-c2cc3c(cc2-c2cccc(C#N)c2)CNC3=O)cc1C#N [Compound 172, 5-(6-(3-cyanophenyl)-3-oxoisoindolin-5-yl)-2-methoxybenzonitrile] | > 10
COc1ccc(-c2cc3c(cc2-c2cccc(C#N)c2)CNC3=O)c(Cl)c1 [Compound 173, 3-(6-(2-chloro-4-methoxyphenyl)-1-oxoisoindolin-5-yl)benzonitrile] | 7.34
COc1cc(F)c(-c2cc3c(cc2-c2cccc(C#N)c2)CNC3=O)cc1F [Compound 174, 3-(6-(2,5-difluoro-4-methoxyphenyl)-1-oxoisoindolin-5-yl)benzonitrile] | > 10
COc1ccc(-c2cc3c(cc2-c2cccc(C#N)c2)CNC3=O)c(C)c1 [Compound 175, 3-(6-(4-methoxy-2-methylphenyl)-1-oxoisoindolin-5-yl)benzonitrile] | > 10
N#Cc1cccc(-c2cc3c(cc2-c2cc(C#N)ccc2F)C(=O)NC3)c1 [Compound 176, 3-(6-(3-cyanophenyl)-3-oxoisoindolin-5-yl)-4-fluorobenzonitrile] | > 10
Cc1cc(-c2cc3c(cc2-c2cccc(C#N)c2)CNC3=O)c(F)cc1F [Compound 177, 3-(6-(2,4-difluoro-5-methylphenyl)-1-oxoisoindolin-5-yl)benzonitrile] | 1.35
N#Cc1cccc(-c2cc3c(cc2-c2ccc(F)c(C#N)c2)C(=O)NC3)c1 [Compound 178, 5-(6-(3-cyanophenyl)-3-oxoisoindolin-5-yl)-2-fluorobenzonitrile] | > 10
N#Cc1cccc(-c2cc3c(cc2-c2ccc(C#N)c(C(F)(F)F)c2)C(=O)NC3)c1 [Compound 179, 4-(6-(3-cyanophenyl)-3-oxoisoindolin-5-yl)-2-(trifluoromethyl)benzonitrile] | > 10
N#Cc1cccc(-c2cc3c(cc2-c2cc(C(F)(F)F)ccc2F)C(=O)NC3)c1 [Compound 180, 3-(6-(2-fluoro-5-(trifluoromethyl)phenyl)-1-oxoisoindolin-5-yl)benzonitrile] | > 10
Cc1cc(-c2cc3c(cc2-c2cccc(C#N)c2)CNC3=O)c(F)cc1C#N [Compound 181, 4-(6-(3-cyanophenyl)-3-oxoisoindolin-5-yl)-5-fluoro-2-methylbenzonitrile] | > 10
